“Also recorded” adds a separate entry of the source.
Experiments:
IGF1R [1] = target: T1, IGF1R (Homo sapiens, UniProt P08069); assay: ATP binding competition assay
Method: Next, competition with ATP was determined directly by employing an assay previously validated to quantify the Km for small molecule kinase inhibitors compete for ATP binding to various kinases (Goldstein et al. 2008).
Target sequence in this assay (P08069 999-1274 limits assumed): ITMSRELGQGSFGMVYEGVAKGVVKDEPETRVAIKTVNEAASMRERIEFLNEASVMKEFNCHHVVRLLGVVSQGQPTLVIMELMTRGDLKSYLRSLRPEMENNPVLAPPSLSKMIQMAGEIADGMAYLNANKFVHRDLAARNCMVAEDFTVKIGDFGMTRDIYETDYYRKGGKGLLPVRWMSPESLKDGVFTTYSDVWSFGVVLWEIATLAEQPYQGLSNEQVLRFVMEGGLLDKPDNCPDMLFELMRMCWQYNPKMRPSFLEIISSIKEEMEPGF

IGF1R [2] = target: T1, IGF1R; assay: IGF1R kinase inhibition (FIG. 7); assay type: biochemical; conditions: data from 3 sources
Target sequence in this assay (P08069 31-1367): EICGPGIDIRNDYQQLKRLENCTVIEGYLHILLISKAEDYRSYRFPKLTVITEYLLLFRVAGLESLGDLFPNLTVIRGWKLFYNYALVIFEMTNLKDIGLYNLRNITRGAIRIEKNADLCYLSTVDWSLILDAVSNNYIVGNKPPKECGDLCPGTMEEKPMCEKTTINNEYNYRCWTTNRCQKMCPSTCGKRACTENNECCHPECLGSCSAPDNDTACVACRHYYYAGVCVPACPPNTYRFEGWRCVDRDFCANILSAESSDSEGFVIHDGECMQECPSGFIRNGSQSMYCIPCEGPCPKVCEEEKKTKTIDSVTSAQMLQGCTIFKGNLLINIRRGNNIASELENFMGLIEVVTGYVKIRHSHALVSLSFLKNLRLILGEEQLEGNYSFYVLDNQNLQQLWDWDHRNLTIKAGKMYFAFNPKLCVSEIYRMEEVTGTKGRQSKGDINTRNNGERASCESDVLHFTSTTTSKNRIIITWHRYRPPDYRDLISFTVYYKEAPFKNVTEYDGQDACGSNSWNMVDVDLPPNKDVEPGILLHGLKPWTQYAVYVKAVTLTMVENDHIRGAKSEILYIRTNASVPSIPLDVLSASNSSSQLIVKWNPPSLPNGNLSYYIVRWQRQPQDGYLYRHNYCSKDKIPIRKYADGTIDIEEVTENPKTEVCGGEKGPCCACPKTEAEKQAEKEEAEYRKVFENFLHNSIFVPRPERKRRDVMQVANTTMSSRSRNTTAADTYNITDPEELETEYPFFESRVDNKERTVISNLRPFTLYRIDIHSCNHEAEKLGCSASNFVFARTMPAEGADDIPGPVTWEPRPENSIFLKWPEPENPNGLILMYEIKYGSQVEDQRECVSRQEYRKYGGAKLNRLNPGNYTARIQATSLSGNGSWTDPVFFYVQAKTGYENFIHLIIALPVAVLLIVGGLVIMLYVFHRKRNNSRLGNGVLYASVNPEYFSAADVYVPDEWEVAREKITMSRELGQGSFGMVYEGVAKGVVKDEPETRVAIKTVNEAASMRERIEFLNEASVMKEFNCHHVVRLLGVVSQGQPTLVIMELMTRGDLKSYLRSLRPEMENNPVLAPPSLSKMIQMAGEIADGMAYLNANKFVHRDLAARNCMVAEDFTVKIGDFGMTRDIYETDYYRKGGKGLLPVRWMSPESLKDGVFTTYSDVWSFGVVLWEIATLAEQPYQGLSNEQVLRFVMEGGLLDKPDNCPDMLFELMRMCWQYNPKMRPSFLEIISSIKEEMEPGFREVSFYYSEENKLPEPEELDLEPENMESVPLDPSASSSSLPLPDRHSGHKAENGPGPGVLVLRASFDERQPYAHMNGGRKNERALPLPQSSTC

EGFR [3] = target: EGFR (Homo sapiens, UniProt P00533); assay: EGFR kinase inhibition / substrate phosphorylation (FIG. 6, 7); assay type: biochemical
c-met = c-met (Homo sapiens, UniProt P08581); assay: c-met kinase inhibition (FIG. 8); assay type: biochemical; conditions: data from 3 sources
KDR (VEGFR2) = KDR (VEGFR2) (Homo sapiens, UniProt P35968); assay: KDR (VEGFR2) kinase inhibition; assay type: biochemical; conditions: data from 3 sources
Excerpt: The inhibition of these targets appears to be via a mechanism of action that is distinct from approved tyrosine kinase inhibitors (TKIs).

IGF-IR = assay: Total protein levels over time-course (FIG. 9); assay type: cell-based; conditions: 2, 4, 8 and 24 hours after treatment, compared to control
EGFR [4] = assay: Total protein levels over time-course (FIG. 9); assay type: cell-based; conditions: 2, 4, 8 and 24 hours after treatment, compared to control
HER2 = assay: Total protein levels over time-course (FIG. 9); assay type: cell-based; conditions: 2, 4, 8 and 24 hours after treatment, compared to control
Met = assay: Total protein levels over time-course (FIG. 9); assay type: cell-based; conditions: 2, 4, 8 and 24 hours after treatment, compared to control
H1975 NSCLC cells = assay: Soft agar colony formation; assay type: cell-based; conditions: H1975, Iressa®-resistant NSCLC cells (T790M), 11 days
Method: FIG. 10. […] Colony formation was determined and results reported normalized to control values as illustrated in FIG. 10.
Colony formation was determined and results reported normalized to control values as illustrated in FIG. 10.

[5] = test system: Tarceva® resistant cell lines (Kras mutants, EGFR mutants, T790M mutation); assay: Growth of Tarceva resistant cell lines (FIG. 11); assay type: cell-based; conditions: growth compared to untreated cells
Excerpt: FIG. 11. […] Growth is shown on the y axis compared to untreated cells. A description of the mutations in the cell lines are identified below in Table 1.

[6] = test system: Additional NSCLC cell lines; assay: Growth of additional NSCLC cell lines (FIG. 12); assay type: cell-based; conditions: growth compared to untreated cells
Excerpt: FIG. 12. […] Growth is shown on the y axis compared to untreated cells.

NSCLC xenograft = NSCLC xenograft tumor growth (FIG. 16); assay type: in vivo; conditions: 3 weeks post-tumor challenge
Excerpt: FIG. 16. […] Tumor volume is shown (y axis) at […], 2.5 and 3 weeks post tumor challenge (x axis).

breast xenograft = assay: Breast xenograft tumor growth (FIG. 17); assay type: in vivo
Excerpt: FIG. 17. […] Tumor volume is shown (y axis) at various time days post tumor challenge (x axis).

pancreatic xenograft = assay: Pancreatic xenograft tumor growth (FIG. 18); assay type: in vivo
Excerpt: FIG. 18. […] Tumor volume is shown (y axis) at various time days post tumor challenge (x axis).

[7] = test system: second pancreatic xenograft; assay: Second pancreatic xenograft tumor growth (FIG. 19); assay type: in vivo
Excerpt: FIG. 19. […] Tumor volume is shown (y axis) at various time days post tumor challenge (x axis).

xenografts of Table 3 = assay: Efficacy in the xenografts of Table 3; assay type: in vivo; conditions: NCI-H209, AsPC-1, HPAC, SW850, MDA-MB435, Her-2 over expressing breast, LoVo, C4-I, neuroblastoma, NCI-H1264
Beagle dogs [8] = assay: Multi-dose oral toxicity, dogs; assay type: in vivo, dog
Method: A dog 28-day multi-dose toxicology assessment was also conducted.

Sprague Dawley rats = assay: 28-day multi-dose oral toxicity, rats; assay type: in vivo, rat
Method: A rat 28-day multi-dose toxicology assessment was conducted at 15, 150, or 500 mg/kg/day.

Beagle dogs [9] = assay: Multi-dose toxicity (dose escalation), dogs; assay type: in vivo
[10] = Phase 1b and 2a clinical data; assay type: in vivo
Excerpt: It provides a competitive advantage over previously described compounds in that the present inventors have identified a novel proposed mechanism of action (MOA), which has been market validated (EGFR & cMet) and clinically validated (IGFR). […] Dose selection has also been determined.

[11] = test system: New Zealand white rabbits; conditions: rabbit, in vivo, po, 14 days
in vivo [12] = conditions: CR: 1CD BR, rat, po
in vivo [13] = conditions: New Zealand white, rabbit, po
IGF1R [14] = target: T1, IGF1R; assay: IGF-1R tyrosine kinase assay with poly Glu4:Tyr1 (PGT) substrate, Lineweaver-Burke analysis; assay type: biochemical; set-up: made in house; host or cells: CHO-IGFR cells
Method: FIG. 1. […] Tyrosine kinase substrate Glu4: Tyr1 was bound to 96 well plates. […] Phosphorylation of substrate was determined by anti-phosphotyrosine ELISA**.
A Lineweaver-Burke analysis was used to calculate Km and Vmax for this reaction (FIG. 1).
Soluble IGF-1R, partially purified from CHO-IGFR cells were incubated with 10 nM IGF-1 in Kinase Buffer (50 mM, pH 7.4, 150 mM NaCl, 0.1% Triton X-100, 0.1% gelatin, 5 mM MnCl2, 8 mM MgCl2, and 1 mM PMSF) for 1 hr at room temperature (RT). […] Labeled ^32P-ATP (20 μM) was added in the presence of varying concentrations of the tyrosine kinase substrate poly Glu4:Tyr1 (PGT) (0.005 to 4 mg/ml). The reaction was stopped after 30 min at 22° C. by blotting 40 μl of the reaction mixture onto Whatman 3 MM papers. Filter papers were air dried and then subjected to the following washing protocol in 10% TCA with 10 mM Na4P2O7: 15 min at 4° C., 15 min at 20° C., 5 min boiling, 5 min boiling, followed by a short rinse with acetone. The filter papers were then allowed to air dry completely. ^32P incorporation into the substrate was determined by liquid scintillation counting.
Target sequence in this assay (P08069 741-1367 limits assumed): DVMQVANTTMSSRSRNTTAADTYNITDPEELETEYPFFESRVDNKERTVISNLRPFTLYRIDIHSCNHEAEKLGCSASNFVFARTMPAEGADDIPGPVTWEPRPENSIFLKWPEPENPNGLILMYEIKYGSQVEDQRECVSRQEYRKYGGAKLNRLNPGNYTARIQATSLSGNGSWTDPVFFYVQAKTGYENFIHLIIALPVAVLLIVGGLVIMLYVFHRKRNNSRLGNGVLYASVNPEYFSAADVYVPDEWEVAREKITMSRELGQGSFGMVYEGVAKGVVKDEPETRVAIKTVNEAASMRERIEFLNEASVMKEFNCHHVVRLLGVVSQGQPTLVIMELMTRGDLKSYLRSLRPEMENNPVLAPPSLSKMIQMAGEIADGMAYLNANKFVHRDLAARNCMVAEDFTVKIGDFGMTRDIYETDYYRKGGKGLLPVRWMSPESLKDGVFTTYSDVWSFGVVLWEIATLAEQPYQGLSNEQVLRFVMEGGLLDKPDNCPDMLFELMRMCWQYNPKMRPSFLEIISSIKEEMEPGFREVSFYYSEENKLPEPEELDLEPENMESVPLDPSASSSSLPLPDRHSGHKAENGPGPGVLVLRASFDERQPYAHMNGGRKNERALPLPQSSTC
Target sequence in this assay (P08069 31-736 partner limits assumed): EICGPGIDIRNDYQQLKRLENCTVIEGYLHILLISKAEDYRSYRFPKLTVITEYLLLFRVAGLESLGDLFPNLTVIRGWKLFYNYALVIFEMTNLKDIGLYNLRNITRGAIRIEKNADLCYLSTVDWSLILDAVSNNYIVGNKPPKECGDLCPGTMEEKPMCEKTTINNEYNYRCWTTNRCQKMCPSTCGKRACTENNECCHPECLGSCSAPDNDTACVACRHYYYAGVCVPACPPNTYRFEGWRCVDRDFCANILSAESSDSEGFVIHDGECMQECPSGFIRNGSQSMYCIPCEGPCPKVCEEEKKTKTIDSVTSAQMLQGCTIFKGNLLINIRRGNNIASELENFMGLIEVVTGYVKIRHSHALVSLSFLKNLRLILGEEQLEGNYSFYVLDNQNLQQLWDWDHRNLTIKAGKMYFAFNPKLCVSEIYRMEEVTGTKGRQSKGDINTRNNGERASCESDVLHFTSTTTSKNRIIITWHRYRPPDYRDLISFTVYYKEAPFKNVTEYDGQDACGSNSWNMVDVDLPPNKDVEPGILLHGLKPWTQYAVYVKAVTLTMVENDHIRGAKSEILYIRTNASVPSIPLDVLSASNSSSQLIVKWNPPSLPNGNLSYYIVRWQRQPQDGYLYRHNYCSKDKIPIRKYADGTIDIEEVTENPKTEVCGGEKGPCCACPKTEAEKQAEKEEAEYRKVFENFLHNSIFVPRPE
Target sequence in this assay (P05019 49-118 partner limits assumed): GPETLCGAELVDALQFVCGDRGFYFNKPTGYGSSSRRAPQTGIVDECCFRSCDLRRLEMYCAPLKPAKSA

[15] = dog 28-day multi-dose toxicology assessment

EGFR (Homo sapiens, UniProt P00533), sequence (P00533 25-1210): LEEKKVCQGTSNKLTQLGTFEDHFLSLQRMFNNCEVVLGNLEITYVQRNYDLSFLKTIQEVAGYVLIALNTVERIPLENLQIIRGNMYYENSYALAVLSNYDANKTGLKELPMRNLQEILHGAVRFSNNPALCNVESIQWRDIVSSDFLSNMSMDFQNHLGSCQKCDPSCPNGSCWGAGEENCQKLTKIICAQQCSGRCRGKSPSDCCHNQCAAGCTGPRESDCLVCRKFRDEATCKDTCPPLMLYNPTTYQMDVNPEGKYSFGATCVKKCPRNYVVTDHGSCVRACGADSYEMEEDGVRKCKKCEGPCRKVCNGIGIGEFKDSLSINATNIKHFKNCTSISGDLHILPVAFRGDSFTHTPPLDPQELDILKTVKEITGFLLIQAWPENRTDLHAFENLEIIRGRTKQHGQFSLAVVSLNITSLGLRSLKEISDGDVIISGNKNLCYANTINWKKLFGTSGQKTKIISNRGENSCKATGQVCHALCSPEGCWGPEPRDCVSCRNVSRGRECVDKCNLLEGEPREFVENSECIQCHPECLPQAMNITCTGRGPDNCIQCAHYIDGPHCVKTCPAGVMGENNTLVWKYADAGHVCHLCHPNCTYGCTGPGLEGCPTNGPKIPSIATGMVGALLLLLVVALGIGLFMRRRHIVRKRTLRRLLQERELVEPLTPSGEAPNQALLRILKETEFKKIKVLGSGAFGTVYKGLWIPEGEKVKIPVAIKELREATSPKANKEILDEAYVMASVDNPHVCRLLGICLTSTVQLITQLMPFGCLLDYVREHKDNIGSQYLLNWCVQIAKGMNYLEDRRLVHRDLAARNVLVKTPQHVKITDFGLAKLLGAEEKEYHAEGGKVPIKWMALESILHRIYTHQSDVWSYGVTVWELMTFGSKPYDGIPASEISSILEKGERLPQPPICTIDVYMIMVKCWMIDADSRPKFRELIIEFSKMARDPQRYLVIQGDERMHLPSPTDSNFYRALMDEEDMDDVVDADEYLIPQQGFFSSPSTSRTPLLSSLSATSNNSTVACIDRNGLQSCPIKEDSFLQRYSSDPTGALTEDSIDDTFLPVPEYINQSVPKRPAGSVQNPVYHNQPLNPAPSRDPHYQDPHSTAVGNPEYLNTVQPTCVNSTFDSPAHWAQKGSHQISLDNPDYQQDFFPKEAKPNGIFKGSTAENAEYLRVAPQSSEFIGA

CC(Cc1ccc(O)c(O)c1)C(C)Cc1ccc(O)c(O)c1 (centres unmarked) [NDGA, nordihydroguaiaretic acid]
Amount of ATP bound to IGF-1R (IGF1R [1]; 30 μM NDGA): unchanged | Interference with binding of a labeled ATP analog to recombinant IGF-1R (IGF1R [1]; any concentration of NDGA up to 100 μM): did not interfere; also recorded: does not interfere | Inhibition of IGF1R (IGF1R [2]): inhibition | Inhibition of EGFR / substrate phosphorylation (EGFR [3]): inhibits substrate phosphorylation; also recorded: inhibition | Inhibition of cMet (c-met): inhibition | Inhibition of KDR (VEGFR2) (KDR (VEGFR2)): inhibition | Total protein level of IGF-IR (IGF-IR): reduction in total protein levels | Total protein level of EGFR (EGFR [4]): reduction in total protein levels | Total protein level of HER2 (HER2): reduction in total protein levels | Total protein level of Met (Met): reduction in total protein levels | Activity on colony formation in soft agar (H1975 NSCLC cells): active | Sensitivity of growth to NDGA [5]: sensitive | Sensitivity of growth to NDGA [6]: sensitive | Tumor growth (tumor volume) compared to control (NSCLC xenograft): inhibit tumor growth | Tumor growth (tumor volume) compared to control (breast xenograft): inhibited growth | Tumor growth (tumor volume) compared to control (pancreatic xenograft): inhibited growth | Tumor growth (tumor volume) compared to control [7]: inhibited growth | Efficacy in xenografts (xenografts of Table 3): efficacy was shown | Necropsy findings (Beagle dogs [8]; [15]): intestinal mucosal reddening | No observable effect level (NOEL) (Beagle dogs [8]; [15]): 60 mg/kg/day | Tolerability of all of the other doses (Beagle dogs [8]; dog, in vivo): well-tolerated in this | Findings at 150 and 500 mg/kg/day (Sprague Dawley rats; 150 and 500 mg/kg/day, 28 days, listed as TT-100): Stomach and duodenal hypertrophy/alterations; also recorded: adverse events | No-effect dose level (Sprague Dawley rats; oral (gavage), once daily for 28 days): 15 mg/kg/day | Tolerability in the repeated dose phase (Beagle dogs [9]; dog, in vivo, po, 300 mg/kg/day): fairly well tolerated, | Clinical findings in the escalation phase (Beagle dogs [9]; dogs, single oral (capsule) doses of 600 and 1200 mg/kg): Significant emesis, | Safety and tolerability [10]: safe and well tolerated | No-effect level [11]: dose of 1000 mg/kg | LD50 at 14 days (in vivo [12]): > 5000 mg/kg | LD50 at 14 days (in vivo [13]; female): 1650 mg/kg | LD50 at 14 days (in vivo [13]; male): 2500 mg/kg | Mechanism of action of IGF-1R inhibition (IGF1R [14]; varying PGT substrate, 20 μg/ml NDGA): substrate competition | Vmax (IGF1R [14]; with NDGA (+TT100), 10 nM IGF-1, 20 μM ATP): 2.0 pmol/min
